# Measurements reported in patent publication US5587479A, “Basic derivatives of glutamic acid and aspartic acid as gastrin or cholecystokinin antagonists” (priority 1992, dated 1996).
# Read-outs that look alike come from different tables or passages of the source.
# Experiments:
# guinea-pig ureters = test: Antispastic activity in vitro: spontaneous motility of guinea-pig ureters; settings: for IC50: Cavia porcellus
# Text: The isotonic contractions were detected by means of a force transducer and recorded. […] A given concentration of the product under test was then introduced into the bath and left in contact with the prepared specimen for five minutes, after which the ureter was washed until its own spontaneous activity was re-established.
# [1] = target: T1, central CCK-B receptors (guinea pig cortical membrane) (Cavia porcellus, UniProt H0VZC5); test: Inhibition of binding of (3-H)[N-methyl-N-leucine]CCK-8 to guinea pig cortical membranes (anti-CCK-B); settings: IC50, inhibition of binding of (3-H)[N-methyl-N-leucine]CCK-8 to the guinea pig cortical membrane, 150 minutes at 25° C.
# T1 construct: Cerebral cortices of white male guinea pigs were therefore used; from tissue; host or cells: guinea pig cerebral cortex membranes
# T1 sequence (H0VZC5 1-426): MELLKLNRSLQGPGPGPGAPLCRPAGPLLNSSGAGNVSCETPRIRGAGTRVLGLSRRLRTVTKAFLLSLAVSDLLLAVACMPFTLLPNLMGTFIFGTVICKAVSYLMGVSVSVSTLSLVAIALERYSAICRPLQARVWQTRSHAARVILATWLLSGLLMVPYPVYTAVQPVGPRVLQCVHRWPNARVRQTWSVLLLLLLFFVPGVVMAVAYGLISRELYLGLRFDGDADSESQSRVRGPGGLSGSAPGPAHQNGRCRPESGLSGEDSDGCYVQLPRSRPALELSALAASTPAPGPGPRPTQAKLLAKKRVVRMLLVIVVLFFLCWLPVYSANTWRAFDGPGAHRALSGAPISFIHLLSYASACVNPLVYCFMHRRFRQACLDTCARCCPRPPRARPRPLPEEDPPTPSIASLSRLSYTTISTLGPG
# Experimental: Cerebral cortices of white male guinea pigs were therefore used, according to the method mentioned above, so as to obtain a membrane content/ml corresponding to about 300 mcg of proteins/mi. The membranes were incubated together with the radioactive tracer and the compounds under test for 150 minutes at 25° C. After the supernatant liquid had been discarded, the radioactivity associated with the pellet was determined with a liquid scintillator.
# mouse = test: Anxiolytic activity in the mouse, Black and White Box test; type: in vivo; settings: for TOTAL MOV.: five minutes; for anxiolytic activity in the Black and White Box test (in words): IP
# Experimental: In order to confirm the hypothesis that the potent activity of some of the compounds of the invention against central CCK-B may be correlated with a possible anxiolytic activity, this potential activity was evaluated in the mouse with the use of the "Black and White Box test". This experimental model, which was carried out according to Costall et al. [Pharm. Biochem. Behav. 32 (1989), 777-785] used a box with dimensions of 45×21×21 (h) cm. divided into two compartments which communicated with each other by means of a 13×5 cm hole. The smaller compartment (1/3 of the total area) had black walls, whereas the larger had transparent walls and was illuminated by a lamp which was placed 20 cm above the box and supplied light at 20 W. Under the floor was an activity meter which registered the movements performed by the animal in the individual compartments. The experiment was started by placing the animal in the centre of the illuminated box; as well at its movements, the time which the animal spent in the dark and in the light and the number of times it moved between the 2 compartments were recorded for five minutes. In general, a control animal tended preferably to stay in the dark compartment where it felt better protected from an unusual enviromental situation which put it in a state of anxiety. In this experimental model ( see the reference cited above), a compound having anxiolytic activity decreased the % of movements into the dark in comparison with the total movements, increased the movements between the two light-dark compartments, and increased the % of the total time time spent in the light. The results obtained are given in Table 5 below in which the activities obtained with the compound 1 (the rectus series ) and its enantiomer 2 (sinister) tested in comparison with diazepam and the CCK-B antagonist L365-260.
# [2] = force of the contractions, five minutes contact, 37° C., read-out: IC50 (force), inhibition of the spontaneous motility of guinea-pig ureters in vitro
# [3] = frequency of the contractions, five minutes contact, 37° C., read-out: IC50 (frequency), inhibition of the spontaneous motility of guinea-pig ureters in vitro
smiles,measurement,setting,value
"COc1ccc(Cc2nccc3cc(OC)c(OC)cc23)cc1OC [Papaverine, reference compound]",IC50,"guinea-pig ureters; read-out: IC50 (force), inhibition of the spontaneous motility of guinea-pig ureters in vitro",23 µg/mL
same,IC50,"guinea-pig ureters; read-out: IC50 (frequency), inhibition of the spontaneous motility of guinea-pig ureters in vitro",27 µg/mL
CCCCCN(CCCCC)C(=O)C(CCC(=O)NCCN1CCOCC1)NC(=O)c1ccc(C(C)C)cc1 (stereo not shown) [Compound 36],IC50,[1],81.3 µM
same,activity on guinea-pig ureters (in words),guinea-pig ureters,extremely active
same,IC50,guinea-pig ureters; [2],2 µg/mL
same,IC50,guinea-pig ureters; [3],1.5 µg/mL
CCCCN(CCCC)C(=O)C(CCC(=O)NCCN1CCOCC1)NC(=O)c1ccc(C)c(C)c1 (stereo not shown) [Compound 28],IC50,guinea-pig ureters; [2],18 µg/mL
same,IC50,guinea-pig ureters; [3],43 µg/mL
CCCCCN(CCCCC)C(=O)C(CCC(=O)NCC1CCCN1CC)NC(=O)c1ccc(C)c(C)c1 (stereo not shown) [Compound 58],IC50,guinea-pig ureters; [2],14 µg/mL
same,IC50,guinea-pig ureters; [3],19 µg/mL
CCCCCN(CCCCC)C(=O)C(CCC(=O)NCCN(C)C)NC(=O)c1ccc(C)c(C)c1 (stereo not shown) [Compound 40],IC50,guinea-pig ureters; [2],27 µg/mL
same,IC50,guinea-pig ureters; [3],44 µg/mL
CCCCCN(CCCCC)C(=O)C(CCC(=O)NCCCN(C)C)NC(=O)c1ccc(C)c(C)c1 (stereo not shown) [Compound 41],IC50,guinea-pig ureters; [2],20 µg/mL
same,IC50,guinea-pig ureters; [3],28 µg/mL
CCCCN(CCCC)C(=O)C(CCC(=O)NCC1CCCN1CC)NC(=O)c1ccc(C)c(C)c1 (stereo not shown) [Compound 31],IC50,guinea-pig ureters; [2],23 µg/mL
CCCCCN(CCCCC)C(=O)C(CCC(=O)NCCN(CC)CC)NC(=O)c1ccc(C)c(C)c1 (stereo not shown) [Compound 42],IC50,guinea-pig ureters; [2],18 µg/mL
same,IC50,guinea-pig ureters; [3],22 µg/mL
CN1CCN(CCNC(=O)CC[C@@H](NC(=O)c2cc(Cl)cc(Cl)c2)C(=O)N2CCC3(CCCC3)CC2)CC1 [Compound 6],IC50,[1],3.3 µM
"Cc1cccc(NC(=O)N[C@@H]2N=C(c3ccccc3)c3ccccc3N(C)C2=O)c1 [Compound L-365-260, reference compound]",LIGHT TIME (%) TOTAL TIME,mouse; 0.01 mg/kg IP,27.0%
same,LIGHT TIME (%) TOTAL TIME: % EFF.VS CONTROL,mouse; 0.01 mg/kg IP,0%
same,LIGHT-DARK MOVEMENTS,mouse; 0.01 mg/kg IP,14.2
same,LIGHT-DARK MOVEMENTS: % EFF. VS CONTROL,mouse; 0.01 mg/kg IP,-12%
same,MOV. DARK (%) TOTAL MOV.,mouse; 0.01 mg/kg IP,57%
same,MOV. DARK (%) TOTAL MOV.: % EFF. VS CONTROL,mouse; 0.01 mg/kg IP,12%
same,TOTAL MOV.,mouse; 0.01 mg/kg IP,417
same,LIGHT TIME (%) TOTAL TIME,mouse; 0.1 mg/kg IP,31.8%
same,LIGHT TIME (%) TOTAL TIME: % EFF.VS CONTROL,mouse; 0.1 mg/kg IP,18%
same,LIGHT-DARK MOVEMENTS,mouse; 0.1 mg/kg IP,13.3
same,LIGHT-DARK MOVEMENTS: % EFF. VS CONTROL,mouse; 0.1 mg/kg IP,-18%
same,MOV. DARK (%) TOTAL MOV.,mouse; 0.1 mg/kg IP,54%
same,MOV. DARK (%) TOTAL MOV.: % EFF. VS CONTROL,mouse; 0.1 mg/kg IP,18%
same,TOTAL MOV.,mouse; 0.1 mg/kg IP,446
same,anxiolytic activity in the Black and White Box test (in words),mouse,active at a dose of 0.1 mg/kg but only for the parameter which relates to the increase in the time spent in the light
CCCCCN(CCCCC)C(=O)C(CCC(=O)NCCN1CCOCC1)NC(=O)c1ccc(OC)c(OC)c1 (stereo not shown) [Compound 35],IC50,guinea-pig ureters; [2],18 µg/mL
same,IC50,guinea-pig ureters; [3],16 µg/mL
CCCCCN(CCCCC)C(=O)C(CCC(=O)NCCN1CCOCC1)NC(=O)c1ccc(Cl)c(Cl)c1 (stereo not shown) [Compound 37],IC50,guinea-pig ureters; [2],8 µg/mL
same,IC50,guinea-pig ureters; [3],7 µg/mL
CCCCCN(CCCCC)C(=O)C(CCC(=O)NCCCN1CCN(Cc2ccccc2)CC1)NC(=O)c1ccc(C)c(C)c1 (stereo not shown) [Compound 51],IC50,guinea-pig ureters; [2],100 µg/mL
same,IC50,guinea-pig ureters; [3],100 µg/mL
CCCCN(CCCC)C(=O)C(CCC(=O)NCCN(C)C)NC(=O)c1ccc(C)c(C)c1 (stereo not shown) [Compound 25],IC50,guinea-pig ureters; [2],36 µg/mL
"CN1C(=O)CN=C(c2ccccc2)c2cc(Cl)ccc21 [DIAZEPAM, diazepam, reference compound]",LIGHT TIME (%) TOTAL TIME,mouse; 1 mg/kg IP,29.3%
same,LIGHT TIME (%) TOTAL TIME: % EFF.VS CONTROL,mouse; 1 mg/kg IP,19%
same,LIGHT-DARK MOVEMENTS,mouse; 1 mg/kg IP,19.9
same,LIGHT-DARK MOVEMENTS: % EFF. VS CONTROL,mouse; 1 mg/kg IP,+37.2%
same,MOV. DARK (%) TOTAL MOV.,mouse; 1 mg/kg IP,53%
same,MOV. DARK (%) TOTAL MOV.: % EFF. VS CONTROL,mouse; 1 mg/kg IP,-5%
same,TOTAL MOV.,mouse; 1 mg/kg IP,508
same,LIGHT TIME (%) TOTAL TIME,mouse; 3 mg/kg IP,33.6%
same,LIGHT TIME (%) TOTAL TIME: % EFF.VS CONTROL,mouse; 3 mg/kg IP,36.7%
same,LIGHT-DARK MOVEMENTS,mouse; 3 mg/kg IP,22.3
same,LIGHT-DARK MOVEMENTS: % EFF. VS CONTROL,mouse; 3 mg/kg IP,+53.8%
same,MOV. DARK (%) TOTAL MOV.,mouse; 3 mg/kg IP,52%
same,MOV. DARK (%) TOTAL MOV.: % EFF. VS CONTROL,mouse; 3 mg/kg IP,-7%
same,TOTAL MOV.,mouse; 3 mg/kg IP,539
same,anxiolytic activity in the Black and White Box test (in words),mouse,active in a dose-dependent manner for all the parameters tested
